In general, IC50 refers to the concentration that gives 50% inhibition.

Experiment [1] deals with A2780 cells. The experiment can be described thus: Cell Proliferation Assay (Cell Titer Glo), A2780. The format is cell-based. To be noted: Homo sapiens, 72 h; A2780 cells, 3 days incubation; read-out: CPEC50 A2780. The essentials: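 Cells seeded at 1000/well, allowed to adhere 3-5 h, then exposed to DMSO-dissolved compounds for 3 days at 37° C., 5% CO2. Medium replaced before Cell Titer Glo addition; luminescence read after 10 min.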

Experiment [2] has as its target T1, PDK1 kinase (Homo sapiens, UniProt O15530).
T1 sequence (O15530 1-556): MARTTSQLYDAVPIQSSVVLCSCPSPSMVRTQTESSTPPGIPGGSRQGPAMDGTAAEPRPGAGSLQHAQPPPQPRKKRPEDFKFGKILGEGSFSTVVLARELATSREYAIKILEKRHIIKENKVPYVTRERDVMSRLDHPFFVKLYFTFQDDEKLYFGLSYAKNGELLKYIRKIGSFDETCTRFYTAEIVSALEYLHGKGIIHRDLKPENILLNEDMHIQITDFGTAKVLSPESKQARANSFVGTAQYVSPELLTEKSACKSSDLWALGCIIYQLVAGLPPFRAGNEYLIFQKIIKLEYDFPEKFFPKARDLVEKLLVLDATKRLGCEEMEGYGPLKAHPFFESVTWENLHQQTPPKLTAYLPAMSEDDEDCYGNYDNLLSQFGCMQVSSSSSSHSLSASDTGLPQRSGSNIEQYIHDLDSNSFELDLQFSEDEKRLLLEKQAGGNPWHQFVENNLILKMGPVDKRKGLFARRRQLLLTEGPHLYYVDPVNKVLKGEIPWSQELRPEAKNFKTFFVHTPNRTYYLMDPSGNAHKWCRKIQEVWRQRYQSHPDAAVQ
The experiment in a line: PDK1 Kinase Alpha Screen Assay. The format is biochemical. To be noted: read-out: PDK1 IC50. The essentials: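 PDK1 phosphorylated 50 nM biotinylated PDK1-4 peptide with 10 uM ATP in Tris pH 7.5, 10 mM MgCl2, 2 mM DTT, 2.5% DMSO for 3-18 hours. After EDTA stop, phosphopeptide was detected by AlphaScreen using phospho-(Ser/Thr) PKA substrate antibody with protein A/streptavidin beads, read after overnight incubation.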

Experiment [3] deals with pAkt308 (phosphorylation of Akt at T308) in PC-3 cells. The experiment can be described thus: pAkt T308 ECL Assay in PC-3 cells. The format is cell-based. To be noted: Homo sapiens, 6 h, six hours with compound, read-out: PAKT308 PC3 IC50. As for the experimental part:
VI. The pAkt^T308 ECL Assay Protocol
On Day 1, PC-3 cells were seeded at 15,000 cells/well in 100 μL/well ([…]) growth media into black-walled, clear bottom, poly-L-lysine coated plates. The cells were incubated overnight in a 37° C., 5% CO2 incubator.
On Day 2, a MSD ECL plate was blocked for two hours with 150 μL per well of 3% MSD blocker A.
Test compounds were diluted to 500× in DMSO and then were subjected to further serial dilution using a BioMek 2000 instrument. DMSO diluted compounds were then diluted into growth media and then added to the cell plates.
The cell plates incubated with compounds for six hours in a 37° C., 5% CO2 incubator after which the growth medium was removed and 55 μl of MSD lysis buffer was added to cell plates on ice. The plates were lysed on ice for five minutes followed by 15 minutes of vigorous shaking on a plate shaker at 4° C. The blocked MSD assay plates were washed twice with 1×MSD wash buffer followed by the addition of cell lysate as follows: 30 μl of cell lysate was added to the pAkt308 plates and 13 μl of lysate+12 μl lysis buffer was added to the tAkt plates. The plates were then sealed and shaken at 4° C. overnight.
On Day 3, the MSD plates were washed four times with 1×MSD wash buffer then, 25 μl/well of MSD SULFO-TAG antibodies diluted to 10 nM final concentration in 1% blocker. A buffer was added to the antibody diluent which was added to assay plates. The plates were then sealed and incubated at RT for 1.5 hour. The plates were then washed twice with 1×MSD wash buffer followed by the addition of 150 μl/well of 1.5×MSD read buffer. The plates were read immediately after the addition of read buffer using a Trilux instrument. […]

The test system of experiment [4] is PC-3 cells. The experiment can be described thus: Cell Proliferation Assay (Cell Titer Glo), PC-3 cell line. Type of experiment: cell-based. To be noted: Homo sapiens, PC-3, 72 h, PC-3 cells, 3 days incubation; read-out: CP EC50 PC3. The essentials:
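PC-3 cells, 1000 cells/well, left to adhere 3-5 h, then exposed for 3 days at 37° C to compounds as 1:3 serial dilutions from 500× DMSO stocks diluted in growth medium. Medium then replaced with fresh medium and viability read by Cell Titer Glo luminescence.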
Background: In ATP-based viability assays light output follows the ATP content of the culture.

In the case of `O=S(=O)(c1cccc(Nc2ncc3cccc(OC4CCNCC4)c3n2)c1)N1CCOCC1` [Compound 5, [3-(Morpholine-4-sulfonyl)-phenyl]-[8-(piperidin-4-yloxy)-quinazolin-2-yl]-amine], the EC50 in experiment [1] is < 5 µM. In addition, the IC50 is < 5 µM in experiment [2] and 5 to 10 µM in experiment [3].
As for `NS(=O)(=O)c1ccc(Nc2ncc3ccc(-c4cccnc4)c(OC4CCNCC4)c3n2)cc1` [Compound 18, 4-[8-(Piperidin-4-yl-oxy)-7-pyridin-3-yl-quinazolin-2-ylamino]-benzenesulfonamide], the EC50 in experiment [1] was < 5 µM. For the same compound, the IC50 in experiment [2] is < 5 µM; in experiment [3], 5 to 10 µM.
As for `Nc1ccc(-c2ccc3cnc(Nc4ccc(S(N)(=O)=O)cc4)nc3c2OC2CCNCC2)cn1` [Compound 21, 4-[7-(6-Amino-pyridin-3-yl)-8-(piperidin-4-yloxy)-quinazolin-2-ylamino]-benzenesulfonamide], the EC50 in experiment [1] was < 5 µM. Moreover, the IC50 in experiment [2] is < 5 µM; in experiment [3] it was 5 to 10 µM.
Regarding `COc1cncc(-c2ccc3cnc(Nc4ccc(S(N)(=O)=O)cc4)nc3c2OC2CCNCC2)c1` [Compound 23, 4-[7-(5-Methoxy-pyridin-3-yl)-8-(piperidin-4-yloxy)-quinazolin-2-ylamino]-benzenesulfonamlde], the EC50 in experiment [1] is < 5 µM. Also, the figures for the IC50 in experiment [2] and in experiment [3] were < 5 µM and 5 to 10 µM, respectively.
As to `NS(=O)(=O)c1ccc(Nc2ncc3ccc(-c4cn[nH]c4)c(OC4CCNCC4)c3n2)cc1` [Compound 24, 4-[8-(Piperidin-4-yloxy)-7-(1H-pyrazol-4-yl)-quinazolin-2-ylamino]-benzenesulfonamide], the EC50 in experiment [1] was < 5 µM. The IC50 is < 5 µM in experiment [2] and 5 to 10 µM in experiment [3].
For `Cn1cc(-c2ccc3cnc(Nc4ccc(S(N)(=O)=O)cc4)nc3c2OC2CCNCC2)cn1` [Compound 25, 4-[7-(1-Methyl-1H-pyrazol-4-yl)-8-(piperidin-4-yloxy)-quinazolin-2-ylamino]-benzenesulfonamide], in experiment [1], the EC50 was < 5 µM. In addition, the IC50 in experiment [2] was < 5 µM; in experiment [3], 5 to 10 µM.
In the case of `NS(=O)(=O)c1ccc(Nc2ncc3ccc(-c4ncco4)c(OC4CCNCC4)c3n2)cc1` [Compound 26, 4-[7-Oxazol-2-yl-8-(piperidin-4-yloxy)-quinazolin-2-ylamino]-benzenesulfonamide], in experiment [1], the EC50 was < 5 µM. For the same compound, the IC50 in experiment [2] was < 5 µM; in experiment [3] it was 5 to 10 µM.
`NS(=O)(=O)c1ccc(Nc2ncc3ccc(-c4nccs4)c(OC4CCNCC4)c3n2)cc1` [Compound 27, 4-[8-(Piperidin-4-yloxy)-7-thiazol-2-yl-quinazolin-2-ylamino]-benzenesulfonamide]: the EC50 in experiment [1] was < 5 µM. For the same compound, the IC50 in experiment [2] and in experiment [3] was < 5 µM each time.
For `NS(=O)(=O)c1ccc(Nc2ncc3ccc(-c4ccccn4)c(OC4CCNCC4)c3n2)cc1` [Compound 28, 4-[8-(Piperidin-4-yloxy)-7-pyridin-2-yl-quinazolin-2-ylamino]-benzenesulfonamide], the EC50 in experiment [1] is < 5 µM. The IC50 was < 5 µM in experiment [2] and 5 to 10 µM in experiment [3].
Consider `CN1CCC(Oc2cccc3cnc(Nc4ccc(S(N)(=O)=O)cc4)nc23)CC1` [Compound 35, 4-[8-(1-Methyl-piperidin-4-yloxy)-quinazolin-2-ylamino]-benzenesulfonamide], for which the EC50 in experiment [1] was < 5 µM. The half-inhibitory concentration (IC50) in experiment [2] and in experiment [3] was < 5 µM in each case.
For the compound `NS(=O)(=O)c1ccc(Nc2ncc3cccc(O[C@@H]4CCNC4)c3n2)cc1` [Compound 37, 4-[8-((R)-Pyrrolidin-3-yloxy)-quinazolin-2-ylamino]-benzenesulfonamide], in experiment [1], the EC50 was < 5 µM. Besides, the IC50 in experiment [2] is < 5 µM; in experiment [3] it was 5 to 10 µM.
As for `CNC(=O)c1ccc(Nc2ncc3cccc(OC4CCN(C(C)C)CC4)c3n2)cc1` [Compound 43, 4-[8-(1-Isopropyl-piperidin-4-yloxy)-quinazolin-2-ylamino]-N-methyl-benzamide], the EC50 in experiment [1] is < 5 µM. In addition, the IC50 in experiment [2] and in experiment [3] was < 5 µM throughout.
For `CCN1CCC(Oc2cccc3cnc(Nc4ccc(S(N)(=O)=O)cc4)nc23)CC1` [Compound 46, 4-[8-(1-Ethyl-piperidin-4-yloxy)-quinazolin-2-ylamino]-benzenesulfonamide], the EC50 in experiment [1] is < 5 µM. In addition, the IC50 in experiment [2] is < 5 µM; in experiment [3] it was 5 to 10 µM.
With `Nc1ncc(-c2ccc3cnc(Nc4ccc(S(N)(=O)=O)cc4)nc3c2OC2CCNCC2)cc1C(F)(F)F` [Compound 68, 4-[7-(6-Amino-5-trifluoromethyl-pyridin-3-yl)-8-(piperidin-4-yloxy)-quinazolin-2-ylamino]-benzenesulfonamide], the IC50 in experiment [2] was < 5 µM; in experiment [3], 5 to 10 µM. For the same compound, the EC50 in experiment [4] was < 5 µM.
On to `CNC(=O)Cc1ccc(Nc2ncc3cccc(OC4CCN(C(C)C)CC4)c3n2)cc1` [Compound 70, 2-{4-[8-(1-Isopropyl-piperidin-4-yloxy)-quinazolin-2-ylamino]-phenyl}-N-methyl-acetamide], for which the IC50 was < 5 µM in experiment [2] and 10 to 25 µM in experiment [3]. Further, in experiment [4], the EC50 is < 5 µM.
With `CC(C)NC(=O)Cc1ccc(Nc2ncc3cccc(OC4CCN(C(C)C)CC4)c3n2)cc1` [Compound 71, N-Isopropyl-2-{4-[8-(1-isopropyl-piperidin-4-yloxy)-quinazolin-2-ylamino]-phenyl}-acetamide], the IC50 in experiment [2] is < 5 µM; in experiment [3], 5 to 10 µM. Besides, in experiment [4], the EC50 is < 5 µM.
As to `CC(C)N1CCC(Oc2cccc3cnc(Nc4ccc(N5CCOCC5)cc4)nc23)CC1` [Compound 72, [8-(1-Isopropyl-piperidin-4-yloxy)-quinazolin-2-yl]-(4-morpholin-4-yl-phenyl)-amine], the IC50 in experiment [2] and in experiment [3] was < 5 µM in each case. Besides, the EC50 in experiment [4] was < 5 µM.
`CC(=O)Nc1ccc(Nc2ncc3cccc(OC4CCN(C(C)C)CC4)c3n2)cc1` [Compound 73, N-{4-[8-(1-Isopropyl-piperidin-4-yloxy)-quinazolin-2-ylamino]-phenyl}-acetamide]: the IC50 in experiment [2] is < 5 µM; in experiment [3], 5 to 10 µM. Besides, in experiment [4], the EC50 was < 5 µM.
For the compound `CNC(=O)Cc1cccc(Nc2ncc3cccc(OC4CCN(C(C)C)CC4)c3n2)c1` [Compound 77, 2-{3-[8-(1-Isopropyl-piperidin-4-yloxy)-quinazolin-2-ylamino]-phenyl}-N-methyl-acetamide], the IC50 in experiment [2] and in experiment [3] was < 5 µM throughout. Also, in experiment [4], the EC50 was < 5 µM.
Turning to `CC(=O)Nc1cccc(Nc2ncc3cccc(OC4CCN(C(C)C)CC4)c3n2)c1` [Compound 81], the IC50 in experiment [2] and in experiment [3] was < 5 µM each time. Moreover, the EC50 in experiment [4] was < 5 µM.
Turning to `C#Cc1cc(OC2CCN(C(C)C)CC2)c2nc(Nc3ccc(S(N)(=O)=O)cc3)ncc2c1` [Compound 86, 4-[6-Ethynyl-8-(1-isopropyl-piperidin-4-yloxy)-quinazolin-2-ylamino]-benzenesulfonamide], the IC50 in experiment [2] and in experiment [3] was < 5 µM in each case. Also, the EC50 in experiment [4] was < 5 µM.

Source of the values: patent US7932262B2 (Novartis AG, priority 2006, dated 2011).
